# Experimental data as given in patent US20060128792A1, “Deguelin as a chemopreventive agent for lung cancer” (priority 2002, published 2006).
# Several values for one entry are separate records, joined by “and”; a condition that tells them apart may be missing. Identical values can stand only once.
# Legend:
# Format in all cases: cell-based
# [1] = test system: H596; assay: MTT assay, growth inhibition by deguelin or deguelin derivatives; settings: H596, 3 days
# [2] = test system: H441; assay: as above; settings: 3 days
# [3] = test system: premalignant (1799, 1198) and malignant (1170) HBE cell lines; assay: MTT assay, growth of premalignant and malignant HBE cell lines; settings: HBE, 72 h, read-out: IC50, growth of premalignant and malignant HBE cell lines
# Description: (§1) Cells and Cell Cultures. […] Tumors developed 6 months later. […] (Klein-Szanto et al., 1992).
# [4] = test system: 1799 cells; assay: MTT assay, viability of 1799 cells (also after Ad5CMV-MyrAkt-HA infection)
# Description: as §1
# [5] = test system: caspase-3, PARP, Bax, Bcl-2, Bcl-xL in 1799 cells; assay: Western blot of caspase-3, PARP and Bcl family proteins
# Description: (§2) Immunoblotting. Whole cell lysates were prepared in lysis buffer (50 mM N-[2-hydroxymethyl]-piperazine-N′-[2-ethanesulfonic acid] [HEPES; pH 7.5], 150 mM NaCl, 1.5 mM MgCl2, ImM EDTA, 0.2 mM EGTA, 1% NP40, 10% glycerol, 1 mM dithiothreitol (DTT), 1 mM phenylmethylsulfonyl fluoride, 20 mM sodium fluoride, 5 mM sodium orthovanadate, 10 μg/ml aprotinin, 10 μg/ml leupeptin, 2 μg/ml pepstatin, and 1 mM benzamidine) as described previously (Lee et al., 2002). Equivalent protein concentrations were resolved in sodium dodecyl sulfate-polyacrylamide gels and transferred to a nitrocellulose membrane. After the blocking of transblotted membrane in Tris-buffered saline (TBS) containing 0.05% Tween 20 (TBST) and 5% low fat milk, themembrane was incubated with primary antibody at the appropriate dilution in TBS-5% low-fat milk at 4° C. for 16 h and washed with TBST. The immunoblots were visualized using the ECL kit (Amersham, Inc., Arlington Heights, III) according to the manufacturer's directions. Rabbit polyclonal antibodies against human pAkt (Ser473), Akt, and pGSK-3β (Ser9), and mouse monoclonal antibody against human anti-pMAPK (Thr202/Tyr204) were purchased from Cell Signalinng Technology (Beverly, Mass.). Rabbit polyclonal anti-glycogen synthase (GSK)-3 α/β (BD Transduction Laboratories, Lexington, Ky.), rabbit polyclonal anti-Bax and anti-caspase-3 antibodies (Pharmingen, San Diego, Calif.), rabbit polyclonal anti-Bcl2 and rabbit polyclonal anti-poly (ADP-ribose) polymerase O?ARP) antibody (VIC 5) (Roche Molecular Biochemicals, Indianapolis, Ind.), goat antibodies against Erk-1, Erk-2, and β-Actin (Santa Cruz Biotechnology, Inc., Santa Cruz, Calif.) were used for western blot analysis.
# [6] = test system: pAkt (Ser473) and pGSK-3β (Ser9) in 1799 cells; assay: Western blot of pAkt (Ser473) and pGSK-3β (Ser9)
# Description: as §2, with “Rabbit polyclonal anti-glycogen synthase (GSK)-3 α/β (BD Transduction Laboratories, Lexington, Ky.), rabbit polyclonal anti-Bax and anti-caspase-3 antibodies (Pharmingen, San Diego, Calif.), rabbit polyclonal anti-Bcl2 and rabbit polyclonal anti-poly (ADP-ribose) polymerase O?ARP) antibody (VIC 5) (Roche Molecular Biochemicals, Indianapolis, Ind.), goat antibodies against Erk-1, Erk-2, and β-Actin (Santa Cruz Biotechnology, Inc., Santa Cruz, Calif.) were used for western blot analysis.” left out
# [7] = test system: pAkt (Ser473) and pGSK-3β (Ser9) in squamous HBE cells; assay: Western blot of pAkt (Ser473) and pGSK-3β (Ser9); settings: time-dependent
# Description: as §2, with “Rabbit polyclonal anti-glycogen synthase (GSK)-3 α/β (BD Transduction Laboratories, Lexington, Ky.), rabbit polyclonal anti-Bax and anti-caspase-3 antibodies (Pharmingen, San Diego, Calif.), rabbit polyclonal anti-Bcl2 and rabbit polyclonal anti-poly (ADP-ribose) polymerase O?ARP) antibody (VIC 5) (Roche Molecular Biochemicals, Indianapolis, Ind.), goat antibodies against Erk-1, Erk-2, and β-Actin (Santa Cruz Biotechnology, Inc., Santa Cruz, Calif.) were used for western blot analysis.” left out
# Effects of Deguelin on Squamous Differentiated HBE Cells. […] It was then determined whether deguelin inhibits the activation of PI3K/Akt pathway in squamous HBE cells. […]
# [8] = test system: H1299 and squamous HBE cells; assay: Apoptosis by flow cytometry (FACS); settings: 10^−7 M deguelin, by day 2 or day 3
# Description: Apoptosis assay. Normal, premalignant, and malignant HBE cells were exposed to v various doses of deguelin for 3 days. […] Both adherent and floating cells were combined for the assessment of apoptosis using the APO-BRDU staining kit (Phoenix Flow Systems, San Diego, Calif.). Briefly, floating and attached cells dispersed with trypsin-EDTA were pelleted, washed, and fixed by 1% paraformaldehyde followed by 70% ethanol. The fixed cells were washed and incubated with DNA-labeling solution containing terminal deoxynucleotidyl transferase (TdT) reaction buffer, TdT enzyme, and bromodeoxyuridine triphosphate (Br-dUTP). Cells were rinsed, resuspended with fluorescein-PRB-I antibody solution, and analyzed by flow cytometry in the presence of PI/RNase solution. […] A dual display of DNA area (linear red fluorescence) and Br-dUTP incorporation (FITC-PRB-1) was used to determine the percentage of apoptotic cells.
# The apoptotic effect of deguelin was further assessed in HBE cells. […] Apoptosis was analyzed by flow cytometry as described above. […] To confirm the apoptotic activity in these cells, bax and bcl-2 expression were analyzed by western blotting. […] Thus, it was determined that deguelin increases bax expression thereby inducing the apoptotic activity in lung cancer cells.
structure (smiles),measurement,setting,value
COc1cc2c(cc1OC)[C@@H]1C(=O)c3ccc4c(c3O[C@@H]1CO2)C=CC(C)(C)O4 [Deguelin],Avg. % con,[1]; deguelin 10^−6M,0.62 % con
same,"MTT value, mean of replicates (unheaded line)",[1]; deguelin 10^−6M,0.290
same,"MTT value, replicate (unheaded line)",[1]; deguelin 10^−6M,0.29 and 0.298 and 0.281
same,Avg. % con,[1]; deguelin 10^−8M,0.67 % con
same,"MTT value, mean of replicates (unheaded line)",[1]; deguelin 10^−8M,0.314
same,"MTT value, replicate (unheaded line)",[1]; deguelin 10^−8M,0.324 and 0.311 and 0.307
same,Avg. % con,[1]; deguelin 10^−10M,0.67 % con
same,"MTT value, mean of replicates (unheaded line)",[1]; deguelin 10^−10M,0.313
same,"MTT value, replicate (unheaded line)",[1]; deguelin 10^−10M,0.314 and 0.338 and 0.287
same,Avg. % con,[1]; deguelin 10^−12M,0.76 % con
same,"MTT value, mean of replicates (unheaded line)",[1]; deguelin 10^−12M,0.358
same,"MTT value, replicate (unheaded line)",[1]; deguelin 10^−12M,0.386 and 0.372 and 0.317
same,Avg. % con,[2]; deguelin 10^−6M,0.82 % con
same,"MTT value, mean of replicates (unheaded line)",[2]; deguelin 10^−6M,0.181
same,"MTT value, replicate (unheaded line)",[2]; deguelin 10^−6M,0.18 (2×) and 0.183
same,Avg. % con,[2]; deguelin 10^−8M,0.94 % con
same,"MTT value, mean of replicates (unheaded line)",[2]; deguelin 10^−8M,0.207
same,"MTT value, replicate (unheaded line)",[2]; deguelin 10^−8M,0.209 and 0.203 and 0.21
same,Avg. % con,[2]; deguelin 10^−10M,1.01 % con
same,"MTT value, mean of replicates (unheaded line)",[2]; deguelin 10^−10M,0.223
same,"MTT value, replicate (unheaded line)",[2]; deguelin 10^−10M,0.21 and 0.231 and 0.229
same,Avg. % con,[2]; deguelin 10^−12M,1.12 % con
same,"MTT value, mean of replicates (unheaded line)",[2]; deguelin 10^−12M,0.247
same,"MTT value, replicate (unheaded line)",[2]; deguelin 10^−12M,0.234 and 0.259 and 0.249
same,IC50,[3],< 1 nM
same,viable number of 1799 cells,"[4]; 1 day, concentration as low as 10^−9 M",reduced
same,viability at 0.1 µM,"[4]; 48 h, 10^−7 M deguelin, 2 days, read-out: viable cells, 1799 cells infected with 5×10^3 particles/cell Ad5CMV-Myr.Akt.HA",> 80%
same,Bcl-2 expression,[5],mild decrease
same,Bcl-xL level,[5],not affected
same,level of Bax,[5],dose-dependent increase
same,32-kDa caspase-3 proenzyme (with increase of 89-kDa PARP fragment),"[5]; more than 10^−8 M deguelin, 3 days",significant decrease
same,"pAkt level, time course",[6]; 10^−7 M deguelin,reduced after 7 h of treatment and was virtually undetectable after 14 h
same,levels of pAkt (Ser473) and pGSK-3β (Ser9),"[6]; time-dependent, Akt, GSK-3α/β and β-Actin not affected",decreased
same,elevated levels of pAkt (Ser473) and pGSK-3β (Ser9),[7],down-regulated
same,apoptosis (flow cytometry),[8],≥ 60%
